One may read the IC50 as the midpoint of a concentration-inhibition curve.

The nature of test [1]: Antagonist activity at mouse CCR4 receptor expressed in mouse B300-19 cells assessed as CCL22-induced chemotaxis.
A short description of test [2]: Antagonist activity at human CCR4 receptor expressed in mouse B300-19 cells assessed as CCL22-induced chemotaxis.

For `COCC1CCCN(C2CCN(c3nc(Nc4ccc(Cl)cc4)c4cc(OC)c(OC)cc4n3)CC2)C1` (stereo unspecified) [N-(4-Chlorophenyl)-6,7-dimethoxy-2-[3-(methoxymethyl)-1,4'-bipiperidin-1'-yl]quinazolin-4-amine], the IC50 in test [1] was determined as 230 nM; in test [2], 64 nM.

Regarding `COc1cc2nc(N3CCC(N4CCCC(CO)C4)CC3)nc(NC3CCCCCC3)c2cc1OC` (stereo unspecified) [{1'-[4-(Cycloheptylamino)-6,7-dimethoxyquinazolin-2-yl]-1,4'-bipiperidin-3-yl}methanol], the IC50 turned out to be 19 nM in test [1] and 100 nM in test [2].

For the molecule `COc1cc2nc(N3CCC(N4CCCC(CO)C4)CC3)nc(NCc3ccc(Cl)cc3)c2cc1OC` (stereo unspecified) [(1'-{4-[(4-Chlorobenzyl)amino]-6,7-dimethoxyquinazolin-2-yl}-1,4'-bipiperidin-3-yl)methanol], the IC50 in test [1] is 140 nM; in test [2], 450 nM.

As for `COc1cc2nc(N3CCC(N4CCCC(O)C4)CC3)nc(Nc3ccc(Cl)cc3)c2cc1OC` (stereo unspecified) [1'-{4-[(4-Chlorophenyl)amino]-6,7-dimethoxyquinazolin-2-yl}-1,4'-bipiperidin-3-ol], the IC50 was 430 nM in test [1] and 85 nM in test [2].

Take `COc1cc2nc(N3CCC(N4CCOC(CO)C4)CC3)nc(Nc3ccc(Cl)cc3)c2cc1OC` (stereo unspecified) [[4-(1-{4-[(4-Chlorophenyl)amino]-6,7-dimethoxyquinazolin-2-yl}piperidin-4-yl)morpholin-2-yl]methanol]: the IC50 in test [2] amounted to 620 nM.

Regarding `COc1cc2nc(N3CCC(N4CCCC(OC)C4)CC3)nc(Nc3ccc(Cl)cc3)c2cc1OC` (stereo unspecified) [N-(4-chlorophenyl)-6,7-dimethoxy-2-(3-methoxy-1,4'-bipiperidin-1'-yl)quinazolin-4-amine], the results for the IC50 in test [1] and in test [2] were 420 nM and 510 nM, respectively.

In the case of `COc1cc2nc(N3CCC(N4CCCC(CO)C4)CC3)nc(NCCc3ccc(Cl)cc3)c2cc1OC` (stereo unspecified) [1'-(4-{[2-(4-Chlorophenyl)ethyl]amino}-6,7-dimethoxyquinazolin-2-yl)-1,40-bipiperidin-3-yl]methanol], in test [1], the IC50 worked out at 390 nM.

With `COc1cc2nc(N3CCC(N4CCCC(CO)C4)CC3)nc(Nc3ccc(Cl)cc3)c2cc1OC` (stereo unspecified) [(1'-{4-[(4-Chlorophenyl)amino]-6,7-dimethoxyquinazolin-2-yl}-1,4'-bipiperidin-3-yl)methanol], the IC50 in test [1] was 58 nM; in test [2], 23 nM.

In the case of `COc1cc2nc(N3CCC(N4CCCCC4)CC3)nc(NC3CCCCCC3)c2cc1OC` [N-cycloheptyl-6,7-dimethoxy-2-(4-(piperidin-1-yl)piperidin-1-yl)quinazolin-4-amine], the half-inhibitory concentration (IC50) in test [1] came to 39 nM; in test [2], 140 nM.
